Data taken from paper PMC9396645 (Frontiers in Chemistry, 2022).

Columns and labels:
C4-2 cells = experiment: Internalization efficiency / specific cell uptake in C4-2 cells; type: cell-based, human; details: ^68Ga-labeled compounds 30 nM, 45 min, 37°C, specificity by 2-PMPA 500 μM, mean ± SD (n = 3)
[1] = Determination of plasma half-life in athymic nude mice; type: in vivo, mouse; details: athymic nude mice (n = 3), i.v. 4–6 MBq, biexponential fit, weighted overall half-life
Description: The radioligands ^68Ga-CA027 and ^68Ga-CA028 (4–6 MBq) were injected into athymic nude mice (n = 3) via the lateral tail vein. Blood (25–50 μL) was collected 2, 5, 15, 30, 45, 60, 90, and 120 min post injection via either the tail or saphenous vein, and the activity of the blood samples was determined in a γ-counter. Both procedures furnished consistent and reproducible results. The percentage of the injected dose per gram of tissue (%ID/g) was calculated, and the resulting values were plotted as a function of time. A biexponential decay curve was used as a fit function, accounting for a short blood half-life (a-phase) during the initial phase directly after injection and a longer blood half-life during the terminal phase (b-phase). The data analysis program Prism 7™ was used to determine both half-lives, t1/2-a and t1/2-b, as well as their relative contribution (in %) to the overall half-life (t1/2). Subsequently, both half-lives were weighed according to their relative contribution to the overall blood half-life t1/2. At the time of tracer injection (t = 0), it was assumed that %ID/g = 50. The injected dose at t = 0 equals 100%, divided by the total mass of blood (approximately 2 g in the case of 6‒8 weeks old mice) gives %ID/g t=0 = 50.

[2] = tested on: C4-2 tumor bearing BALB/c nu/nu mice; experiment: Small-animal PET imaging in C4-2 tumor bearing mice; type: in vivo, mouse; details: for mSUV Bladder / mSUV Heart / mSUV Kidneys / mSUV Liver / mSUV Muscle / mSUV Tumor: small-animal PET, C4-2 xenograft mouse
From the text: Athymic male nude mice (BALB/c nu/nu) were purchased from Charles River at 4‒5 weeks of age (19–23 g). The mice were kept under pathogen-free conditions for 1 week prior to the study. The mice had free access to water and food and were housed with a 12-h/12-h light/dark cycle. The xenografts required for positron emission tomography (PET) imaging and biodistribution studies were obtained by inoculation of 5 × 10^7 C4-2 cells in 50% Matrigel in Opti-MEM I (1 ×) medium. For this purpose, the mice were anesthetized with 2% sevoflurane, and inoculation was performed subcutaneously on the right trunk. When the size of the tumor was approximately 1 cm^3, the studies were performed.
For small-animal PET imaging, the different ^68Ga-labeled PSMA ligands (0.5 nmol, 20 MBq in approximately 100 µL 0.9% saline) were injected into C4-2 tumor bearing mice. The dynamic PET was recorded in a small animal PET scanner (Siemens Inveon D-PET). The standardized uptake values (SUVs) were obtained from conventional (non-dynamic) PET images. The formula for the SUV was SUV=activity in ROI (Bq/ml) × animal weight (g)/injected dose(Bq)
Manual delineation of the respective appropriate whole organ (heart, kidneys, bladder, tumor, with an approximate volume of 100–500 µL) yielded the volumes of interest (VOIs). For this purpose, whole organs or parts of the organ/tissue (liver and muscle) were used. The images were reconstructed based on the procedure: OSEM 3D/SP MAP with 16 subsets, two iterations, and an image x-y size: 256, image z size: 161. The data were not modified with a post-processing filter. Analysis of the images and time-activity curves (TACs) was conducted on the Inveon™ Acquisition Workplace (IAW) from Siemens IRW 4.1. […] […] The mean SUVs were plotted over time in order to compare the different radiotracers.

prostate cancer patients = experiment: PSMA-PET/CT of prostate cancer patients; type: in vivo, human; details: patient PET/CT, 20 nmol
Description: Diagnostic PSMA-PET/computed tomography (CT) examinations were performed 1 and 3 h after antecubital injection of 339 MBq/20 nmol ^68Ga-CA028 or 295 MBq/20 nmol ^68Ga-CA030 per patient, respectively. The method for assessing the biodistribution was performed as previously described by Afshar-Oromieh et al. ([Afshar-Oromieh et al., 2015b]). Applying the clinical standard software Syngo (Siemens), which was used to define the VOIs in the PET images, the activity distributions of the source organs was determined. This reference ([Afshar-Oromieh et al., 2015b]) was also used as a standard of reference for ^68Ga-PSMA-617 (Table 3).

O=C([O-])CN1CCN(CC(=O)[O-])CCN(Cc2ccc(C(=O)NCC3CCC(C(=O)NC(Cc4ccc5ccccc5c4)C(=O)NCCCCC(NC(=O)NC(CCC(=O)O)C(=O)O)C(=O)O)CC3)cc2)CCN(CC(=O)[O-])CC1.[68Ga+3] (stereo not drawn) [^68Ga-CA028]
Specific lysate (internalization) (C4-2 cells): 41.2 ± 2.7 %IA/10^6 cells | plasma half-life t1/2 [1]: 5.2 min | mSUV Bladder ([2]; 1 h): 6.50 | mSUV Heart ([2]; 1 h): 0.36 | mSUV Kidneys ([2]; 1 h): 0.39 | mSUV Liver ([2]; 1 h): 0.22 | mSUV Muscle ([2]; 1 h): 0.13 | mSUV Tumor ([2]; 1 h): 0.81 | mSUV Bladder ([2]; 2 h): 2.5 | mSUV Heart ([2]; 2 h): 0.13 | mSUV Kidneys ([2]; 2 h): 0.29 | mSUV Liver ([2]; 2 h): 0.09 | mSUV Muscle ([2]; 2 h): 0.05 | mSUV Tumor ([2]; 2 h): 0.78 | tumor-to-kidney ratio ([2]; mean SUV body weight from dynamic PET, 1 h p.i.): 2.08 | tumor-to-kidney ratio ([2]; mean SUV from PET, 2 h p.i.): 2.69 | SUV mean Bone metastasis (prostate cancer patients; first listed bone metastasis, 1 h p.i.): 4.5 | SUV mean Bone metastasis (prostate cancer patients; first listed bone metastasis, 3 h p.i.): 4.1 | SUV mean Lymph node (prostate cancer patients; first listed lymph node, 1 h p.i.): 13.5 | SUV mean Lymph node (prostate cancer patients; first listed lymph node, 3 h p.i.): 10.7 | SUV mean Blood pool, mediastinal (prostate cancer patients; 1 h p.i.): 3.2 | SUV mean Colon (prostate cancer patients; 1 h p.i.): 4.9 | SUV mean Gluteal muscle (prostate cancer patients; 1 h p.i.): 0.7 | SUV mean Kidneys (prostate cancer patients; 1 h p.i.): 13.8 | SUV mean Lacrimal gland (prostate cancer patients; 1 h p.i.): 7.4 | SUV mean Liver (prostate cancer patients; 1 h p.i.): 4.3 | SUV mean Lung metastasis (prostate cancer patients; 1 h p.i.): 5.7 | SUV mean Nasal mucosa (prostate cancer patients; 1 h p.i.): 2.9 | SUV mean Parotid gland (prostate cancer patients; 1 h p.i.): 11.0 | SUV mean Proximal small intestine (prostate cancer patients; 1 h p.i.): 8.4 | SUV mean Spleen (prostate cancer patients; 1 h p.i.): 5.1 | SUV mean Sublingual gland (prostate cancer patients; 1 h p.i.): 3.8 | SUV mean Submandibular gland (prostate cancer patients; 1 h p.i.): 14.4 | SUV mean Blood pool, mediastinal (prostate cancer patients; 3 h p.i.): 2.9 | SUV mean Colon (prostate cancer patients; 3 h p.i.): 4.2 | SUV mean Gluteal muscle (prostate cancer patients; 3 h p.i.): 0.4 | SUV mean Kidneys (prostate cancer patients; 3 h p.i.): 10.9 | SUV mean Lacrimal gland (prostate cancer patients; 3 h p.i.): 7.6 | SUV mean Liver (prostate cancer patients; 3 h p.i.): 1.8 | SUV mean Lung metastasis (prostate cancer patients; 3 h p.i.): 4.7 | SUV mean Nasal mucosa (prostate cancer patients; 3 h p.i.): 3.5 | SUV mean Parotid gland (prostate cancer patients; 3 h p.i.): 8.0 | SUV mean Proximal small intestine (prostate cancer patients; 3 h p.i.): 10.4 | SUV mean Spleen (prostate cancer patients; 3 h p.i.): 2.5 | SUV mean Sublingual gland (prostate cancer patients; 3 h p.i.): 2.8 | SUV mean Submandibular gland (prostate cancer patients; 3 h p.i.): 8.9 | SUV mean Bone metastasis (prostate cancer patients; second listed bone metastasis, 1 h p.i.): 6.9 | SUV mean Bone metastasis (prostate cancer patients; second listed bone metastasis, 3 h p.i.): 5.7 | SUV mean Lymph node (prostate cancer patients; second listed lymph node, 1 h p.i.): 17.0 | SUV mean Lymph node (prostate cancer patients; second listed lymph node, 3 h p.i.): 25.4 | SUV mean Bone metastasis (prostate cancer patients; third listed bone metastasis, 1 h p.i.): 4.6 | SUV mean Bone metastasis (prostate cancer patients; third listed bone metastasis, 3 h p.i.): 4.4 | SUV mean Lymph node (prostate cancer patients; third listed lymph node, 1 h p.i.): 5.0 | SUV mean Lymph node (prostate cancer patients; third listed lymph node, 3 h p.i.): 4.1
